Experimental findings from patent publication US9346815B2, “5-chloro-2-difluoromethoxyphenyl pyrazolopyrimidine compounds, compositions and methods of use thereof” (Genentech, Inc., priority 2014, dated 2016) are described below.

The term Ki denotes a measure of affinity in units of concentration, obtained from inhibition or displacement.

For assay [1], the system named is JAK1-dependent STAT6 phosphorylation downstream of IL-13 stimulation in BEAS-2B human bronchial epithelial cells. In words: JAK1 pathway assay in BEAS-2B cells (IL-13-pSTAT6, MSD). Format: cell-based. The following applies: read-out: IL13-pSTAT6 EC50 (uM)_BEAS-2B. In short, it runs like this: (§1)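 Cells were preincubated with compounds (0.2% DMSO) for 30 min (TF-1, GM-CSF-starved overnight, serum-free OptiMEM, 300,000 cells/well) or 1 h (BEAS-2B, complete medium, 100,000 cells/well) at 37 °C.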

Assay [2] relates to JAK1-dependent STAT6 phosphorylation downstream of IL-13 stimulation in TF-1 human erythroleukemia cells. In words: JAK1 pathway assay in TF-1 cells (IL-13-pSTAT6, MSD). The note with it: Homo sapiens, TF-1, TF-1 cells, read-out: IL13-pSTAT6 EC50_TF-1. It counts as cell-based. In short, it runs like this: as §1
In assay [3] the target is isolated recombinant JAK2 kinase domain (Homo sapiens (Human), UniProt O60674). In words: JAK2 enzyme assay (Caliper LabChip, peptide phosphorylation). It counts as biochemical. The following applies: 25 μM ATP.
Sequence of isolated recombinant JAK2 kinase domain (O60674 849-1124): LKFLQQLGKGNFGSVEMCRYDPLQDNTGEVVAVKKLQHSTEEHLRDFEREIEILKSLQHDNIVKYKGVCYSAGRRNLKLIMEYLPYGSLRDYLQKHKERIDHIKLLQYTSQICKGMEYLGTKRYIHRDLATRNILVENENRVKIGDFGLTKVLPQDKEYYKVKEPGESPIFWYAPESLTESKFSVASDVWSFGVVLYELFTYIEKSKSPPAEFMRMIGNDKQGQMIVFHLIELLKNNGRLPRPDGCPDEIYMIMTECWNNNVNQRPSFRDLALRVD
The target of assay [4] is isolated recombinant JAK1 kinase domain (Homo sapiens (Human), UniProt P23458). In words: JAK1 enzyme assay (Caliper LabChip, peptide phosphorylation). It counts as biochemical. The note with it: isolated recombinant JAK1 kinase domain, 25 μM ATP.
Sequence of isolated recombinant JAK1 kinase domain (P23458 875-1153): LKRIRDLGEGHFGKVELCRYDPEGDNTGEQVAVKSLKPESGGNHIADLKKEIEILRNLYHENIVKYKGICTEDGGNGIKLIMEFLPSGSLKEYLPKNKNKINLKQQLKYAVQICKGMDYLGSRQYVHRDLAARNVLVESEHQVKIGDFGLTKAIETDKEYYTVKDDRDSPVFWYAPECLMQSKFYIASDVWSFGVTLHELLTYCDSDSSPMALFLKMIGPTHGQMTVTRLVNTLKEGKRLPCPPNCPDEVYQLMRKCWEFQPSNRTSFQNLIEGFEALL

Structures are written as SMILES.

Turning to `C[N+](C)(CCCc1ccccc1)C1CCN(C(=O)Cn2cc(NC(=O)c3cnn4cccnc34)c(-c3cc(Cl)ccc3OC(F)F)n2)CC1` [Example 124, [1-[2-[3-[5-chloro-2-(difluoromethoxy)phenyl]-4-(pyrazolo[1,5-a]pyrimidine-3-carbonylamino)pyrazol-1-yl]acetyl]-4-piperidyl]-dimethyl-(3-phenylpropyl)ammonium], the EC50 in assay [1] turned out to be 0.535 µM; in assay [2], 87.9 nM.

`N#CCCN1CCN(C(=O)Cn2cc(NC(=O)c3cnn4cccnc34)c(-c3cc(Cl)ccc3OC(F)F)n2)CC1` [Example 406, N-(3-(5-chloro-2-(difluoromethoxy)phenyl)-1-(2-(4-(2-cyanoethyl)piperazin-1-yl)-2-oxoethyl)-1H-pyrazol-4-yl)pyrazolo[1,5-a]pyrimidine-3-carboxamide]: the figures for the Ki in assay [3] and in assay [4] were 0.99 nM and 0.46 nM, respectively. Moreover, the EC50 in assay [1] is 0.0333 µM.

In the case of `O=C(Nc1cn(CC(=O)N2CCN(C3CCOCC3)CC2)nc1-c1cc(Cl)ccc1OC(F)F)c1cnn2cccnc12` [Example 429, N-(3-(5-chloro-2-(difluoromethoxy)phenyl)-1-(2-oxo-2-(4-(tetrahydro-2H-pyran-4-yl)piperazin-1-yl)ethyl)-1H-pyrazol-4-yl)pyrazolo[1,5-a]pyrimidine-3-carboxamide], the Ki in assay [3] was 0.99 nM; in assay [4], 0.48 nM. Moreover, the EC50 in assay [1] worked out at 0.0074 µM.

For `CNC(=O)CN1CCN(C(=O)Cn2cc(NC(=O)c3cnn4cccnc34)c(-c3cc(Cl)ccc3OC(F)F)n2)CC1` [Example 383, N-[3-[5-chloro-2-(difluoromethoxy)phenyl]-1-(2-[4-[(methylcarbamoyl)methyl]piperazin-1-yl]-2-oxoethyl)-1H-pyrazol-4-yl]pyrazolo[1,5-a]pyrimidine-3-carboxamide], the Ki in assay [3] is 0.66 nM; in assay [4] it was 0.39 nM. Moreover, the EC50 in assay [1] is 0.277 µM.

Take `O=C(Nc1cn(CC(O)CN2CCCCC2)nc1-c1cc(Cl)ccc1OC(F)F)c1cnn2cccnc12` (centres unmarked) [Example 405, N-(3-(5-chloro-2-(difluoromethoxy)phenyl)-1-(2-hydroxy-3-(piperidin-1-yl)propyl)-1H-pyrazol-4-yl)pyrazolo[1,5-a]pyrimidine-3-carboxamide]: the inhibition constant (Ki) in assay [3] came to 0.68 nM; in assay [4], 1.73 nM. Besides, the EC50 in assay [1] is 0.0257 µM.

For the compound `O=C(O)CN1CCN(C(=O)Cn2cc(NC(=O)c3cnn4cccnc34)c(-c3cc(Cl)ccc3OC(F)F)n2)CC1` [Example 310, 2-[4-(2-[3-[5-chloro-2-(difluoromethoxy)phenyl]-4-[pyrazolo[1,5-a]pyrimidine-3-amido]-1H-pyrazol-1-yl]acetyl)piperazin-1-yl]acetic acid], the Ki in assay [3] was found to be 0.59 nM; in assay [4], 0.52 nM. In addition, the EC50 in assay [1] was 8.83 µM.

For the compound `O=C(Nc1cn(CC(=O)N2CCN(C3CCOC3)CC2)nc1-c1cc(Cl)ccc1OC(F)F)c1cnn2cccnc12` (centres unmarked) [Example 437, N-(3-(5-chloro-2-(difluoromethoxy)phenyl)-1-(2-oxo-2-(4-(tetrahydrofuran-3-yl)piperazin-1-yl)ethyl)-1H-pyrazol-4-yl)pyrazolo[1,5-a]pyrimidine-3-carboxamide], the values for the inhibitory constant (Ki) in assay [3] and in assay [4] were 0.88 nM and 0.38 nM, respectively. Further, the EC50 in assay [1] stood at 0.0126 µM.

Consider `O=C(Nc1cn(CC(=O)N2CC3CCCNC3C2)nc1-c1cc(Cl)ccc1OC(F)F)c1cnn2cccnc12` (centres unmarked) [Example 439, N-(3-(5-chloro-2-(difluoromethoxy)phenyl)-1-(2-(octahydropyrrolo[3,4-b]pyridin-6-yl)-2-oxoethyl)-1H-pyrazol-4-yl)pyrazolo[1,5-a]pyrimidine-3-carboxamide], for which the results for the Ki in assay [3] and in assay [4] were 0.78 nM and 0.71 nM, respectively. In addition, the EC50 in assay [1] was determined as 0.0353 µM.

In the case of `O=C(Nc1cn(CCN[C@H]2CCOC2)nc1-c1cc(Cl)ccc1OC(F)F)c1cnn2cccnc12` [Example 399, N-(3-(5-chloro-2-(difluoromethoxy)phenyl)-1-(2-((S)-tetrahydrofuran-3-ylamino)ethyl)-1H-pyrazol-4-yl)pyrazolo[1,5-a]pyrimidine-3-carboxamide], the values for the Ki in assay [3] and in assay [4] were 0.39 nM and 0.9 nM, respectively. Also, in assay [1], the EC50 was determined as 0.0232 µM.

Turning to `CC1(N2CCOCC2)CCN(C(=O)Cn2cc(NC(=O)c3cnn4cccnc34)c(-c3cc(Cl)ccc3OC(F)F)n2)CC1` [Example 410, N-(3-(5-chloro-2-(difluoromethoxy)phenyl)-1-(2-(4-methyl-4-morpholinopiperidin-1-yl)-2-oxoethyl)-1H-pyrazol-4-yl)pyrazolo[1,5-a]pyrimidine-3-carboxamide], the Ki turned out to be 1.25 nM in assay [3] and 0.6 nM in assay [4]. In addition, the EC50 in assay [1] was found to be 0.0183 µM.

Take `COC(=O)C1CCN(CCN2CCN(C(=O)Cn3cc(NC(=O)c4cnn5cccnc45)c(-c4cc(Cl)ccc4OC(F)F)n3)CC2)CC1` [Example 333, methyl1-[2-[4-(2-[3-[5-chloro-2-(difluoromethoxy)phenyl]-4-[pyrazolo[1,5-a]pyrimidine-3-amido]-1H-pyrazol-1-yl]acetyl)piperazin-1-yl]ethyl]piperidine-4-carboxylate]: the Ki in assay [3] is 1.96 nM; in assay [4], 0.69 nM. The EC50 in assay [1] was determined as 0.0065 µM.

Consider `CN1CCC(COC(=O)C2(C)CCN(C(=O)Cn3cc(NC(=O)c4cnn5cccnc45)c(-c4cc(Cl)ccc4OC(F)F)n3)CC2)CC1` [Example 389, (1-methylpiperidin-4-yl)methyl 1-(2-[3-[5-chloro-2-(difluoromethoxy)phenyl]-4-[pyrazolo[1,5-a]pyrimidine-3-amido]-1H-pyrazol-1-yl]acetyl)-4-methylpiperidine-4-carboxylate], for which the inhibition constant Ki in assay [3] stood at 2.16 nM; in assay [4], 0.4 nM. In addition, in assay [1], the EC50 is 0.0175 µM.

Turning to `O=C(Nc1cn(CC(=O)N2CCN(Cc3ccccc3)CC2)nc1-c1cc(Cl)ccc1OC(F)F)c1cnn2cccnc12` [Example 320, N-[1-[2-(4-benzylpiperazin-1-yl)-2-oxoethyl]-3-[5-chloro-2-(difluoromethoxy)phenyl]-1H-pyrazol-4-yl]pyrazolo[1,5-a]pyrimidine-3-carboxamide], the Ki in assay [3] was determined as 0.6 nM; in assay [4], 0.31 nM. In addition, the EC50 in assay [1] stood at 0.0473 µM.

In the case of `CN1CCC2CN(C(=O)Cn3cc(NC(=O)c4cnn5cccnc45)c(-c4cc(Cl)ccc4OC(F)F)n3)CC21` (centres unmarked) [Example 430, N-(3-(5-chloro-2-(difluoromethoxy)phenyl)-1-(2-(1-methyl-hexahydropyrrolo[3,4-b]pyrrol-5(1H)-yl)-2-oxoethyl)-1H-pyrazol-4-yl)pyrazolo[1,5-a]pyrimidine-3-carboxamide], the inhibition constant Ki in assay [3] came out at 0.77 nM; in assay [4] it was 0.51 nM. Also, the EC50 in assay [1] amounted to 0.0058 µM.

`O=C(Nc1cn(Cc2cn(C3CCN(C4CCOC4)CC3)nn2)nc1-c1cc(Cl)ccc1OC(F)F)c1cnn2cccnc12` (centres unmarked) [Example 455, N-(3-(5-chloro-2-(difluoromethoxy)phenyl)-1-((1-(1-(tetrahydrofuran-3-yl)piperidin-4-yl)-1H-1,2,3-triazol-4-yl)methyl)-1H-pyrazol-4-yl)pyrazolo[1,5-a]pyrimidine-3-carboxamide]: the inhibitory constant (Ki) was 0.15 nM in assay [3] and 0.3 nM in assay [4]. Further, the EC50 in assay [1] is 0.021 µM.
